Results: patent publication US20140162285A1, “Methods of Modulating Vesicular Trafficking” (The General Hospital Corporation, priority 2009, published 2014)
Peptide text beside a SMILES is read from it. * marks the point of attachment. Biotin = O=C1N[C@H]2[C@H](CS[C@H]2CCCCC(=O)*)N1

Target: T1, Sec7-domain of ARNO (Homo sapiens, UniProt Q99418)
T1 construct: iii) 61-252aa, Sec7 domain; GST (N, cleaved yes); made in house; host or cells: E. coli BL21(DE3)
T1 sequence (Q99418 61-252): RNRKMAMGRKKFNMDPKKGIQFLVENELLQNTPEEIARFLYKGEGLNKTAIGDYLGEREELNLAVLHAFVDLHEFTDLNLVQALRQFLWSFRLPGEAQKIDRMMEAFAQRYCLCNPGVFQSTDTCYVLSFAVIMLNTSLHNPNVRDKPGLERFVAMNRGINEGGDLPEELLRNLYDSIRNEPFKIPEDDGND
Experiment: surface plasmon resonance (BIAcore T100) kinetic analysis a2N-01 peptide/Sec7-domain
Format: binding
Conditions: ΔGbind=RTlnKD
Source text: 6A, Kinetic analysis and estimation of a dissociation constant (KD) for interaction between full-length a2N(wt) and ARNO(wt) proteins. Sensorgrams for the binding of recombinant a2N-6His immobilized as ligand on the sensor chip, with various concentrations of 6His-ARNO as analyte are shown as follows. The responses on the sensorgram are designated in resonance units (RU). […] 6B, Kinetic analysis and estimation of KD for interaction between a2N-01 peptide and Sec7-domain of ARNO. Sensorgrams for the binding of a2N-01 peptide immobilized as ligand on the sensor chip, with various concentrations of Sec7-domain as analyte are shown as follows. The responses on the sensorgram are designated in resonance units (RU).
All reagents, including buffers, sensor chips and the amine coupling kit, were obtained from GE Healthcare. […] Dissociation of the complexes was monitored for 10 min, and then the regeneration of the sensor surfaces was performed using 0.05% SDS with 1-min injection in the running buffer at a 20 μl/min flow rate. […] The dissociation constant (KD) was determined from the kon/koff values. To estimate affinity of interaction the corresponding free energy of binding ΔGbind=RTlnKD was calculated as previously described (Marles et al., Mol Cell 14 (2004) 813-823). […]

calculated free energy of binding: -8.81 kcal/mol
SMILES: CSCC[C@H](NC(=O)CCCC[C@@H]1SC[C@@H]2NC(=O)N[C@@H]21)C(=O)NCC(=O)N[C@@H](CO)C(=O)N[C@@H](CC(C)C)C(=O)N[C@@H](Cc1ccccc1)C(=O)N[C@@H](CCCNC(=N)N)C(=O)N[C@@H](CO)C(=O)N[C@@H](CCC(=O)O)C(=O)N[C@@H](CO)C(=O)N[C@@H](CCSC)C(=O)N[C@@H](CS)C(=O)N[C@@H](CC(C)C)C(=O)N[C@@H](C)C(=O)N[C@@H](CCC(N)=O)C(=O)N[C@@H](CC(C)C)C(=O)N[C@@H](Cc1ccccc1)C(=O)N[C@@H](CC(C)C)C(=O)N[C@@H](CS)C(=O)O [a2N-01, Bio-MGSLFRSE SMCLAQLFL-Cys] (Biotin-MGSLFRSESMCLAQLFLC-OH; N-terminus and C-terminus assumed)
